Results published in patent US7713942B2, “Cage-like microparticle complexes comprising sterols and saponins for delivery of polynucleotides” (Nordic Vaccine Technology A/S, priority 2001, dated 2010).
Several values for one entry are separate records, joined by “and”; a condition that tells them apart may be missing. Identical values can stand only once.

Experiments:
[1] = dose-dependent, apparently nonspecific; cited from earlier work
[2] = Equilibrium-dialysis of ^14C-Mega 10 from ISCOM-matrix; conditions: water not replaced
Protocol: ISCOMs were prepared by combining Quil A, cholesterol and phophatidylcholine with the component to be inserted (e.g. lipopeptide). ISCOMs were allowed to form for 4 hours with stirring at 35° C. (room temperature for experiments with ^12C/^14C-Mega 10) followed by dialysis against phosphate buffered saline (pH 7.2) in Slide-A-Lyzer® cassettes (Pierce, Rockford, Ill.) or dialysis tubing (Visking, London, UK), MW cut-off 10,000. The concentration in the reaction mixture of Quil A ranged 0.9 mg/ml to 1.3 mg/ml for the different preparations (see Section 3), whereas the concentration of cholesterol and phophatidylcholine was 0.03% w/v in all experiments. The final concentration of Mega 10 was 4% w/v unless otherwise stated.
In the first experiment the kinetics of the Mega 10-dialysis was investigated. ISCOM-matrix was formed in the presence of 7% w/v ^12C/^14C-Mega 10 and Quil A at a concentration of 0.9 mg/ml. From a total volume of 18.3 ml sixteen aliquots of 1 ml were taken and set up for dialysis against water in 8 beakers of 1000 ml (2×1 ml bags per 1000 ml water). Four beakers were placed at room temperature and four at 4° C. with stirring. On each of the following days one beaker from both temperatures were taken and the contents of the individual dialysis bags (2×2 bags) counted after addition of water in order to compensate for differences in volume. Table 1 lists the amount of ^14C-Mega 10 remaining in each bag after dialysis for a certain period of time given as the percentage of cpm (counts per minute) relative to the initial ^14C-contents. […] However, the same end-point concentration of ^14C-Mega 10 was reached within four days (0.4-1%) despite of temperature. Anticipating that Mega 10 diffuses freely across the dialysis membrane one would expect the contents of dialysis bags to represent 0.51% of the total ^14C-Mega 10, as the volume of two bags (from one beaker) at equilibrium was 5.1 ml leaving approx. 995 ml in the beaker (5.1 ml/995 ml*100%=0.51%). And it is concluded that although dialysis at room temperature is faster than dialysis at 4° C. both methods are equally efficient in removing Mega 10 from ISCOM-matrix.

[3] = End-point-dialysis of ^14C-Mega 10 from ISCOM-matrix; conditions: for Amount of detergent remaining in bags: Room temperature, daily replacement of water
Protocol: In order to further investigate if Mega 10 could be completely removed from ISCOM-matrix a second experiment was designed. Here, four dialysis bags containing 1 ml of ISCOM-matrix prepared with 3.3% w/v ^12C/^14C-Mega 10 was placed in individual beakers containing 1000 ml of water. Dialysis was performed at room temperature with stirring. Each day one beaker was taken and the contents of the dialysis bag counted after which the dialysis buffer (water) of the remaining beakers was replaced.

**Q.** For CC(=O)O[C@@H]1[C@H](O[C@@H]2O[C@@H](CO)[C@H](O)[C@H]2O)[C@@H](O[C@@H]2O[C@@H](C)[C@H](O[C@@H]3OC[C@@H](O)[C@H](O)[C@H]3O)[C@@H](O)[C@H]2O)[C@H](OC(=O)[C@]23CCC(C)(C)C[C@H]2C2=CC[C@@H]4[C@@]5(C)CC[C@H](O[C@@H]6O[C@H](C(=O)O)[C@@H](O)[C@H](O[C@@H]7OC[C@@H](O)[C@H](O)[C@H]7O)[C@H]6O[C@@H]6O[C@H](CO)[C@H](O)[C@H](O)[C@H]6O)[C@@](C)(C=O)[C@H]5CC[C@@]4(C)[C@]2(C)CC3)O[C@@H]1C [Squarroside A], which immunomodulating activity [1] is on record?
**A.** a suppressive effect at concentrations in the μg range and a stimulant effect in the pg range

**Q.** Which results are given for CCCCCCCCCC(=O)N(C)CC(O)C(O)C(O)C(O)CO (centres unmarked) [^14C-Mega 10, N-Decanoyl-N-methylglucamide]?
**A.** Amount of detergent remaining in dialysis bags ([2]; 4° C., 1 day): 14.5 percentage of initial cpm and 13.5 percentage of initial cpm; Amount of detergent remaining in dialysis bags ([2]; 4° C., 2 days): 2.2 percentage of initial cpm and 2.3 percentage of initial cpm; Amount of detergent remaining in dialysis bags ([2]; 4° C., 3 days): 1.0 percentage of initial cpm and 1.3 percentage of initial cpm; Amount of detergent remaining in dialysis bags ([2]; 4° C., 4 days): 0.7 percentage of initial cpm and 1.1 percentage of initial cpm; Amount of detergent remaining in dialysis bags ([2]; Room temperature, 1 day): 2.1 percentage of initial cpm; Amount of detergent remaining in dialysis bags ([2]; Room temperature, 2 days): 0.9 percentage of initial cpm; Amount of detergent remaining in dialysis bags ([2]; Room temperature, 3 days): 0.9 percentage of initial cpm; Amount of detergent remaining in dialysis bags ([2]; Room temperature, 4 days): 0.7 percentage of initial cpm and 0.4 percentage of initial cpm; Amount of detergent remaining in bags ([3]; 1 day): 0.23%; Amount of detergent remaining in bags ([3]; 2 days): 0.07%; Amount of detergent remaining in bags ([3]; 3 days): 0.06%; Amount of detergent remaining in bags ([3]; 4 days): 0.07%; original amount of detergent remaining within the dialysis bag ([3]; at equilibrium, with replacement of water): 0.07%
